According to patent publication US20230174484A1, “ANTAGONISTS OF GPR39 PROTEIN” (Oregon Health & Science University, priority 2020, published 2023):
Where a name gives a salt, the structure may show the parent alone.

These molecules were tested against T1, human GPR39 receptor (Homo sapiens, UniProt O43194) (assay: Measurement of intracellular calcium response in PC3 cells (FLIPR), antagonism of the C3 agonist response). Details: functional pKi (modified Cheng-Prusoff), inhibition of the C3 (TC-G 1008) response at EC90, 30 μM ZnCl2, read-out: fpKi activity.
T1 construct: PC3 Cells, Expressing the Endogenous Human GPR39 Receptor; endogenous in cells; host or cells: PC3 (human prostate adenocarcinoma) cells
T1 sequence (O43194 1-453): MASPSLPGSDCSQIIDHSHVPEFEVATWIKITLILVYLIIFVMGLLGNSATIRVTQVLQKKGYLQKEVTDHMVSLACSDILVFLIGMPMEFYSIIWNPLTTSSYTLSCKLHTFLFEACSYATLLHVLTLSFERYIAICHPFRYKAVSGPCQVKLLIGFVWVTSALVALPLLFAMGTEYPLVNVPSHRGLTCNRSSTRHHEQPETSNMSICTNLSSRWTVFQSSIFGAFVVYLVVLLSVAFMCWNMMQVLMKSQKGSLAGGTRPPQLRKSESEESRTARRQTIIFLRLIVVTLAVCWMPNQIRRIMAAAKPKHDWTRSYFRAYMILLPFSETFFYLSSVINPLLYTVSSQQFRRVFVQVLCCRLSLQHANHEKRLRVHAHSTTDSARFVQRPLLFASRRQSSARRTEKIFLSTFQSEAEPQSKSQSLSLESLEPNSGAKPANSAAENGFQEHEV
Format: cell-based
Method: Human prostate adenocarcinoma (PC3) cells endogenously expressing human GPR39 receptor were seeded into black walls clear-base 384-well plates at a density of 7,500 cells per well in DM EM (Low Glucose) supplemented with 10% heat-inactivated foetal bovine serum and 1% of Pen/Strep and grown overnight at 37° C., 5% CO2. After washing with assay buffer (20 mM HEPES, 137 mM NaCI, 5.4 mM KCI, 10 mM glucose, 0.8 mM MgSO4, 1.3 mM CaCl2, 0.3 mM Na2HPO4, 0.4 mM KH2PO4 4.2 mM NaHCO3, pH 7.4), cells were incubated with Calcium-6 probe (Molecular Devices) at 37° C. for 2h and then equilibrated at RT for 30 minutes on metal block. The fluorescence was measured in real time by Fluorometric Imaging Plate Reader (FLIPR TETRA, Molecular Devices) (excitation wavelength at 470-495 nm, emission wavelength at 515-575 nm).
Compounds of invention were serially diluted in neat DMSO at 1000 fold concentrations and plated into 384-well plates and then 200-fold diluted in assay buffer containing 150 uM ZnCl2 (30 μM final concentration) and […].
Fluorescence was monitored throughout the run assay. The peak of Ca2+stimulation (baseline subtracted) was expressed as percentage of the maximal inhibition of the EC90 C3 response and was plotted versus the concentration of test compound. Curve fitting and IC50 estimations are carried out using a four-parameter logistic model using XLfit Software.
The potency of compounds was reported as functional pKi (—Log10Ki) obtained using the modified Cheng-Prusoff relationship (Cheng, Y., Prusoff, W. H. 1973.)
fKi =IC50/(1+[L]/EC50) where IC50 is the concentration of antagonist required for 50% inhibition of the maximum response, [L] is the concentration of the agonist used (EC90) and EC50 is the concentration of agonist need to induced 50% of the maximum response (obtained in each experimental plate).
An fpKi less than 5.2 is reported as “+/±”. An fpKi ranging from 5.2 to 5.9 is reported as “+”. An fpKi from 6.0 to 6.5 is reported as “++”. An fpKi from 6.6 to 7.2 is reported as “+++”. An fpKi equal to or greater than 7.3 is reported as “++++”.

Compound | Ki [nM]
CN(C)C(=O)N1CCN(C(=O)c2ccc(NC(=O)C3CC3)cc2N2CCCC2)C(c2ccccc2)C1 (centres unmarked) [Example 216, 4-[4-(cyclopropanecarbonylamino)-2-pyrrolidin-1-ylbenzoyl]-N,N-dimethyl-3-phenylpiperazine-1-carboxamide] | 63.1 to 251
CCCN1CCN(C(=O)c2ccc(Nc3nnc(C4CC4)[nH]3)cc2N2CCCCCC2)CC1 [Example 98] | 1260 to 6310
CC(C)C1CN(C)CCN1C(=O)c1ccc(NC(=O)C2CC2)cc1N1CCCCCC1 (centres unmarked) [Example 79, N-[3-(azepan-1-yl)-4-(4-methyl-2-propan-2-ylpiperazine-1-carbonyl)phenyl]Cyclopropanecarboxamide] | 1260 to 6310
CCCN1CCN(C(=O)c2ccc(NC(N)=O)cc2N2CCCCCC2)CC1 [Example 96, [3-(azepan-1-yl)-4-(4-propylpiperazine-1-carbonyl)phenyl]urea] | 1260 to 6310
CCCN1CCN(C(=O)c2ccc(NC(=O)C3CC3)cc2N2CCC(C)C2)CC1 (single isomer, unassigned) [Example 13a, N-(3-[(3R or 3S] 3-methylpyrrolidin-1-yl]-4-(4-propylpiperazine-1-carbonyl)phenyl) cyclopropanecarboxamide] | 63.1 to 251
O=C(Nc1ccc(C(=O)N2CCC(C(F)(F)F)CC2)c(N2CCCC2)n1)C1CC1 [Example 107, N-[6-pyrrolidin-1-yl-5-[4-(trifluoromethyl)piperidine-1-carbonyl]pyridin-2-yl]Cyclopropanecarboxamide] | ≤ 50.1
CC1CCN(c2cc(NC(=O)C3CC3)ccc2C(=O)N2CCC(C(F)(F)F)CC2)C1 (single isomer, unassigned) [Example 63a, (N-[3-(3R or 3S-methylpyrrolidin-l-yl)-4-[4-(trifluoromethyl)piperidine-1-carbonyl]phenyl]cyclopropanecarboxamide] | ≤ 50.1
O=C(Nc1ccc(C(=O)N2CCS(=O)(=O)CC2)c(N2CCC3(CCC3)C2)n1)C1CC1 [Example 143, N-[6-(6-azaspiro[3.4]octan-6-yl)-5-(1,1-dioxo-1,4-thiazinane-4-carbonyl)pyridin-2-yl]cyclopropanecarboxamide] | ≤ 50.1
CS(=O)(=O)N1CCN(C(=O)c2ccc(NC(=O)C3CC3)cc2N2CCCC2)C(c2ccccc2)C1 (centres unmarked) [Example 215, N-[4-(4-methylsulfonyl-2-phenylpiperazine-1-carbonyl)-3-pyrrolidin-1-ylphenyl]cyclopropanecarboxamide] | 63.1 to 251
O=C(Nc1ccc(C(=O)N2CCS(=O)(=O)CC2)c(N2CCCC3(CC3)C2)c1)C1CC1 [Example 189, N-[3-(5-azaspiro[2.5]octan-5-yl)-4-(1,1-dioxo-1,4-thiazinane-4-carbonyl)phenyl]cyclopropanecarboxamide] | 63.1 to 251
O=C(Nc1ccc(C(=O)N2CCN(Cc3cccnc3)CC2)c(N2CCCCCC2)c1)C1CC1 [Example 32, N-(3-(azepan-1-yl)-4-(4-(pyridin-3-ylmethyl)piperazine-1-carbonyl)phenyl)cyclopropanecarboxamide] | 316 to 1000
CCCN1CCN(C(=O)c2ccc(NC(=O)C3CC3)cc2N2CCCCCC2)CC1 [Example 36, N-(3-(azepan-1-yl)-4-(4-propylpiperazine-1-carbonyl)phenyl)cyclopropanecarboxamide] | 63.1 to 251
CCCN1CCN(C(=O)c2ccc(NC(=O)C3CC3)cc2-n2ccc(C)c2)CC1 [Example 9, N-[3-(3-methylpyrrol-1-yl)-4-(4-propylpiperazine-1-carbonyl)phenyl] Cyclopropanecarboxamide] | 1260 to 6310
CCCN1CCN(C(=O)c2ccc(NC(=O)C3CC3)cc2N2CC3CC3C2)CC1 (centres unmarked) [Example 12, N-(3-(3-azabicyclo[3.1.0]hexan-3-yl)-4-(4-propylpiperazine-1-carbonyl)phenyl)cyclopropanecarboxamide] | 316 to 1000
O=C(Nc1ccc(C(=O)N2CCN(Cc3ccccc3Cl)CC2)c(N2CCCCCC2)c1)C1CC1 [Example 31, N-(3-(azepan-1-yl)-4-(4-(2-chlorobenzyl)piperazine-1-carbonyl)phenyl) Cyclopropanecarboxamide] | 316 to 1000
COc1cccc(CN2CCN(C(=O)c3ccc(NC(=O)C4CC4)cc3N3CCCCCC3)CC2)c1 [Example 25, N-(3-(azepan-1-yl)-4-(4-(3-methoxybenzyl)piperazine-1-carbonyl)phenyl) Cyclopropanecarboxamide] | 316 to 1000
CCCN1CCN(C(=O)c2ccc(NC(=O)C3CC3)cc2N2CCC(C)(C)CC2)CC1 [Example 17, N-(3-(4,4-dimethylpiperidin-1-yl)-4-(4-propylpiperazine-1-carbonyl)phenyl)cyclopropanecarboxamide] | 63.1 to 251
O=C(Nc1ccc(C(=O)N2CCS(=O)(=O)CC2)c(N2CCCC(F)(F)C2)c1)C1CC1 [Example 191, N-[3-(3,3-difluoropiperidin-1-yl)-4-(1,1-dioxo-1,4-thiazinane-4-carbonyl)phenyl]cyclopropanecarboxamide] | 1260 to 6310
CN1CCN(C(=O)c2ccc(NC(=O)C3CC3)cc2N2CCCC2)C(c2ccccc2)C1 (single isomer, unassigned) [Example 62a, (2R or 2S) n-[4-(4-methyl-2-phenylpiperazine-1-carbonyl)-3-pyrrolidin-1-ylphenyl] Cyclopropanecarboxamide] | ≤ 50.1

Results, then the molecule that gave them:

Ki [nM] | Compound
63.1 to 251 | CC1CC(C)CN(c2cc(NC(=O)C3CC3)ccc2C(=O)N2CCN(C)CC2c2ccccc2)C1 (single isomer, unassigned) [Example 68d, Anti N-[3-[3,5-dimethylpiperidin-1-yl]-4-(4-methyl-2-phenylpiperazine-1-carbonyl)phenyl]cyclopropanecarboxamide]
≤ 50.1 | CN1CCN(C(=O)c2ccc(NC(=O)C3CC3)cc2N2CCCCCC2)C(c2ccsc2)C1 (single isomer, unassigned) [Example 70b, N-(3-(azepan-1-yl)-4-(4-methyl-2-(thiophen-3-yl)piperazine-1-carbonyl)phenyl)cyclopropane carboxamide]
1260 to 6310 | CN1CCN(C(=O)c2ccc(NC(=O)C3CC3)cc2N2CCCCCC2)C(c2cccs2)C1 (single isomer, unassigned) [Example 69a, N-(3-(azepan-1-yl)-4-(4-methyl-2-(thiophen-2-yl)piperazine-1-carbonyl)phenyl) cyclopropane carboxamide]
63.1 to 251 | CN1CCN(C(=O)c2ccc(NC(=O)C3CC3)cc2N2CCCC2)C(c2ccccc2F)C1 (racemic) [Example 84c, N-[4-[2-(2-fluorophenyl)-4-methylpiperazine-1-carbonyl]-3-pyrrolidin-1-ylphenyl]cyclopropanecarboxamide]
316 to 1000 | Cc1nnc(-c2ccc(C(=O)N3CCN(C)CC3c3ccccc3)c(N3CCC(C(F)(F)F)C3)c2)[nH]1 (single isomer, unassigned) [Example 177b, (2S, 3R) or (2R, 3S) or (2R, 3R) or (2S, 3S) (4-methyl-2-phenylpiperazin-1-yl)-[4-(5-methyl-4H-1,2,4-triazol-3-yl)-2-[3-(trifluoromethyl)pyrrolidin-1-yl]phenyl]methanone]
≤ 50.1 | CN1CCN(C(=O)c2ccc(NC(=O)C3CC3)cc2N2CCC(F)(F)C2)C(c2ccccc2)C1 (single isomer, unassigned) [Example 202b, N-[3-(3,3-difluoropyrrolidin-1-yl)-4-(2R or 2S)-4-methyl-2-phenylpiperazine-1-carbonyl)phenyl]cyclopropanecarboxamide]
≤ 50.1 | CN1CCN(C(=O)c2ccc(NC(=O)C3CC3)cc2N2CCC(C(F)(F)F)C2)C(c2ccccc2)C1 (single isomer, unassigned) [Example 199e, (2S, 3R) or (2R, 3S) or (2R, 3R) or (2S, 3S) N-[4-(4-methyl-2-phenylpiperazine-1-carbonyl)-3-[3-(trifluoromethyl)pyrrolidin-1-yl]phenyl]cyclopropanecarboxamide hydrochloride]
